The results in this text go back to BindingDB's records for doi:10.1016/s0960-894x(01)00246-3 (Rohm and Haas, 2001).

SMILES strings stand for the structures.

The experiment addresses Tubulin alpha/beta (Bos taurus). The experiment can be described thus: Inhibition of Bos taurus (bovine) brain tubulin polymerization.
One may read the EC50 as the midpoint of the concentration-response curve. A high value points to a need for much substance. `COc1ccc(-c2ccc(OC)c(OC)c2OC)cc1` [2,3,4,4'-Tetramethoxy-biphenyl] displayed an EC50 of 6.25 µM.
Turning to `COc1ccc(-c2ccccc2C#N)c(OC)c1OC` [2',3',4'-Trimethoxy-biphenyl-2-carbonitrile], it took 50 µM to reach a half-maximal effect (EC50).
For the molecule `COc1ccc(-c2ccccc2[N+](=O)[O-])c(OC)c1OC` [2,3,4-Trimethoxy-2'-nitro-biphenyl], the EC50 is more than 100 µM.
With `COc1ccc(-c2ccc(OC)c(OC)c2OC)c(C#N)c1` [4,2',3',4'-Tetramethoxy-biphenyl-2-carbonitrile] the figure was 6.25 µM; with `COc1ccc(C2CC=CCC2C#N)c(OC)c1OC` (centres undefined) [6-(2,3,4-Trimethoxy-phenyl)-cyclohex-3-enecarbonitrile], more than 100 µM; with `O=[N+]([O-])[C@@H]1CC=CC[C@H]1c1ccccc1` [((1S,6R)-6-Nitro-cyclohex-3-enyl)-benzene], more than 100 µM.
In the case of `COc1ccc(-c2ccc(OC)c(OC)c2OC)c(C)c1` [2,3,4,4'-Tetramethoxy-2'-methyl-biphenyl], the EC50 turned out to be 6.25 µM.
Regarding `COc1cccc([C@@H]2CC=CC[C@H]2[N+](=O)[O-])c1` [1-Methoxy-3-((1S,6R)-6-nitro-cyclohex-3-enyl)-benzene], the EC50 is more than 100 µM.
With `COc1ccc(-c2ccc(OC)c(OC)c2OC)c([N+](=O)[O-])c1` [2,3,4,4'-Tetramethoxy-2'-nitro-biphenyl] the figure was 6.25 µM.
